In patent US20210047304A1, “Bromodomain Inhibitors” (AbbVie Inc., priority 2016, published 2021):

target: BRD4 (BDI_K57-E168) (Homo sapiens, UniProt O60885); assay: TR-FRET bromodomain binding assay, BRD4 BDI; settings: not given

| Compound | Ki [µM] |
| --- | --- |
| Cc1cc(F)cc(C)c1Oc1ccc(C(C)(C)O)cc1-c1cn(C)c(=O)cc1O[C@H]1CC[C@H](NC(=O)c2ccccc2C(=O)O)CC1 [Example 45, 2-{[trans-4-({5-[2-(4-fluoro-2,6-dimethylphenoxy)-5-(2-hydroxypropan-2-yl)phenyl]-1-methyl-2-oxo-1,2-dihydropyridin-4-yl}oxy)cyclohexyl]carbamoyl}benzoic acid] | 4.17 |
| Cc1cc(F)cc(C)c1Oc1ccc(C(C)(C)O)cc1-c1cn(C)c(=O)cc1O[C@H]1CC[C@H](NC(=O)C2(C#N)CC2)CC1 [Example 85, 1-cyano-N-[trans-4-({5-[2-(4-fluoro-2,6-dimethylphenoxy)-5-(2-hydroxypropan-2-yl)phenyl]-1-methyl-2-oxo-1,2-dihydropyridin-4-yl}oxy)cyclohexyl]cyclopropane-1-carboxamide] | 2.27 |
| Cc1cc(F)cc(C)c1Oc1ccc(C(C)(C)O)cc1-c1cn(C)c(=O)cc1O[C@H]1C[C@@H](C(=O)O)C1 [Example 97, cis-3-({5-[2-(4-fluoro-2,6-dimethylphenoxy)-5-(2-hydroxypropan-2-yl)phenyl]-1-methyl-2-oxo-1,2-dihydropyridin-4-yl}oxy)cyclobutane-1-carboxylic acid] | 9.53 |
| Cc1cc(F)cc(C)c1Oc1ccc(C(C)(C)O)cc1-c1cn(C)c(=O)cc1O[C@H]1CC[C@H](CNC(=O)OC(C)(C)C)CC1 [Example 15, tert-butyl [trans-4-({5-[2-(4-fluoro-2,6-dimethylphenoxy)-5-(2-hydroxypropan-2-yl)phenyl]-1-methyl-2-oxo-1,2-dihydropyridin-4-yl}oxy)cyclohexyl]methylcarbamate] | 6.02 |
| CCNC(=O)[C@H]1C[C@@H](Oc2cc(=O)n(C)cc2-c2cc(C(C)(C)O)ccc2Oc2c(C)cc(F)cc2C)C1 [Example 95, cis-N-ethyl-3-({5-[2-(4-fluoro-2,6-dimethylphenoxy)-5-(2-hydroxypropan-2-yl)phenyl]-1-methyl-2-oxo-1,2-dihydropyridin-4-yl}oxy)cyclobutane-1-carboxamide] | 1.58 |
| COC(=O)N[C@H]1CC[C@H](Oc2cc(=O)n(C)cc2-c2cc(C(C)(C)O)cnc2Oc2c(C)cc(C(C)(C)O)cc2C)CC1 [Example 25, methyl [trans-4-({5′-(2-hydroxypropan-2-yl)-2′-[4-(2-hydroxypropan-2-yl)-2,6-dimethylphenoxy]-1-methyl-6-oxo[1,6-dihydro[3,3′-bipyridine]]-4-yl}oxy)cyclohexyl]carbamate] | 2.22 |
| Cc1cccc(C)c1Oc1ccc(C(C)(C)O)cc1-c1cn(C)c(=O)cc1NC1CCN(S(C)(=O)=O)CC1 [Example 2, 5-[2-(2,6-dimethylphenoxy)-5-(2-hydroxypropan-2-yl)phenyl]-4-{[1-(methanesulfonyl)piperidin-4-yl]amino}-1-methylpyridin-2(1H)-one] | 5.89 |

Further lines, results first:

| Ki [µM] | Compound |
| --- | --- |
| > 13 | Cc1cc(F)cc(C)c1Oc1ccc(C(C)(C)O)cc1-c1cn(C)c(=O)cc1O[C@H]1CC[C@H](NC(=O)N2CCNC2=O)CC1 [Example 123, N-[trans-4-({5-[2-(4-fluoro-2,6-dimethylphenoxy)-5-(2-hydroxypropan-2-yl)phenyl]-1-methyl-2-oxo-1,2-dihydropyridin-4-yl}oxy)cyclohexyl]-2-oxoimidazolidine-1-carboxamide] |
| 1.95 | Cc1cc(F)cc(C)c1Oc1ccc(C(C)(C)O)cc1-c1cn(C)c(=O)cc1O[C@H]1CC[C@@H](C#N)CC1 [Example 68, cis-4-({5-[2-(4-fluoro-2,6-dimethylphenoxy)-5-(2-hydroxypropan-2-yl)phenyl]-1-methyl-2-oxo-1,2-dihydropyridin-4-yl}oxy)cyclohexane-1-carbonitrile] |
| 0.783 | Cc1cc(F)cc(C)c1Oc1ccc(C(C)(C)O)cc1-c1cn(C)c(=O)cc1O[C@H]1CC[C@H](N(C)C(=O)C2(C)CC2)CC1 [Example 58, N-[trans-4-({5-[2-(4-fluoro-2,6-dimethylphenoxy)-5-(2-hydroxypropan-2-yl)phenyl]-1-methyl-2-oxo-1,2-dihydropyridin-4-yl}oxy)cyclohexyl]-N,1-dimethylcyclopropane-1-carboxamide] |
| 5.45 | Cc1cc(F)cc(C)c1Oc1ccc(C(C)(C)O)cc1-c1cn(C)c(=O)cc1O[C@H]1CC[C@H](NS(C)(=O)=O)CC1 [Example 46, N-[trans-4-({5-[2-(4-fluoro-2,6-dimethylphenoxy)-5-(2-hydroxypropan-2-yl)phenyl]-1-methyl-2-oxo-1,2-dihydropyridin-4-yl}oxy)cyclohexyl]methanesulfonamide] |
| > 13 | CC=C1NC(=O)N([C@H]2CC[C@H](Oc3cc(=O)n(C)cc3-c3cc(C(C)(C)O)ccc3Oc3c(C)cc(F)cc3C)CC2)C1=O [Example 133, 5-ethylidene-3-[trans-4-({5-[2-(4-fluoro-2,6-dimethylphenoxy)-5-(2-hydroxypropan-2-yl)phenyl]-1-methyl-2-oxo-1,2-dihydropyridin-4-yl}oxy)cyclohexyl]imidazolidine-2,4-dione] |
| 4.21 | Cc1cc(F)cc(C)c1Oc1ccc(C(C)(C)O)cc1-c1cn(C)c(=O)cc1O[C@H]1CC[C@H](N2C(=O)N[C@H](C)C2=O)CC1 [Example 132, (5R)-3-[trans-4-({5-[2-(4-fluoro-2,6-dimethylphenoxy)-5-(2-hydroxypropan-2-yl)phenyl]-1-methyl-2-oxo-1,2-dihydropyridin-4-yl}oxy)cyclohexyl]-5-methylimidazolidine-2,4-dione] |
| 8.85 | CCN1CC(=O)N([C@H]2CC[C@H](Oc3cc(=O)n(C)cc3-c3cc(C(C)(C)O)ccc3Oc3c(C)cc(F)cc3C)CC2)C1=O [Example 127, 1-ethyl-3-[trans-4-({5-[2-(4-fluoro-2,6-dimethylphenoxy)-5-(2-hydroxypropan-2-yl)phenyl]-1-methyl-2-oxo-1,2-dihydropyridin-4-yl}oxy)cyclohexyl]imidazolidine-2,4-dione] |
| 2.25 | Cc1cc(F)cc(C)c1Oc1ccc(C(C)(C)O)cc1-c1cn(C)c(=O)cc1O[C@H]1CC[C@H](N2CCCOC2=O)CC1 [Example 39, 3-[trans-4-({5-[2-(4-fluoro-2,6-dimethylphenoxy)-5-(2-hydroxypropan-2-yl)phenyl]-1-methyl-2-oxo-1,2-dihydropyridin-4-yl}oxy)cyclohexyl]-1,3-oxazinan-2-one] |
| > 13 | Cc1cc(F)cc(C)c1Oc1ccc(C(C)(C)O)cc1-c1cn(C)c(=O)cc1O[C@H]1CC[C@H](N2NC(=O)CC2=O)CC1 [Example 121, 1-[trans-4-({5-[2-(4-fluoro-2,6-dimethylphenoxy)-5-(2-hydroxypropan-2-yl)phenyl]-1-methyl-2-oxo-1,2-dihydropyridin-4-yl}oxy)cyclohexyl]pyrazolidine-3,5-dione] |
| > 13 | Cc1cc(F)cc(C)c1Oc1ccc(C(C)(C)O)cc1-c1cn(C)c(=O)cc1O[C@H]1CC[C@H](NC(=O)C2(C)CC2)CC1 [Example 51, N-[trans-4-({5-[2-(4-fluoro-2,6-dimethylphenoxy)-5-(2-hydroxypropan-2-yl)phenyl]-1-methyl-2-oxo-1,2-dihydropyridin-4-yl}oxy)cyclohexyl]-1-methylcyclopropane-1-carboxamide] |
| 2.53 | Cc1cc(F)cc(C)c1Oc1ccc(C(C)(C)O)cc1-c1cn(C)c(=O)cc1O[C@H]1CC[C@H](NC(=O)CCO)CC1 [Example 49, N-[trans-4-({5-[2-(4-fluoro-2,6-dimethylphenoxy)-5-(2-hydroxypropan-2-yl)phenyl]-1-methyl-2-oxo-1,2-dihydropyridin-4-yl}oxy)cyclohexyl]-3-hydroxypropanamide] |

same assay, conditions: mean Ki; 12 nM His tagged BRD4 (BDI_K57-E168), 100 nM Alexa647 probe; Ki calculated from IC50, probe Kd and probe concentration

| Compound | Ki [µM] |
| --- | --- |
| methyl [trans-4-({5-[2-(4-fluoro-2,6-dimethylphenoxy)-5-(2-hydroxypropan-2-yl)phenyl]-1-methyl-2-oxo-1,2-dihydropyridin-4-yl}oxy)cyclohexyl]methylcarbamate [Example 21] | 3.02 |
